Data on 2 compounds can be found in patent US20190086432A1, “SYSTEMS AND METHODS RELATED TO HUMAN NON-INVASIVE DRUG TESTING” (priority 2017, published 2019).

Bounds are passed on as bounds.

For data set [1] the following is noted: people driving; similar to 0.08 breath alcohol; cited from earlier work.
For data set [2] the following is noted: sustained abstinence in chronic frequent smokers; cited from earlier work.
The next data set in a line: physchem. The conditions noted are these: pH 9.5, aqueous buffer.

With `CCCCCc1cc(O)c2c(c1)OC(C)(C)[C@@H]1CCC(C)=C[C@@H]21` [THC, Δ-9-tetrahydrocannabinol], in data set [1], the “blood concentration showing increased weaving within the lane” value was 13.1 µg/L. Also, the “time residual THC can be detected in blood” value in data set [2] was “up to a month”.
With `COc1cc(NS(C)(=O)=O)ccc1N` [OX0245], in the data set “physchem”, the solubility was no less than 1000 µg/mL.

For orientation: solubility means how much of the substance goes into solution per volume.
